{
  "source": "patent US20060068012A1",
  "about": "“Process for preparing poly (vinyl alcohol) drug delivery devices with humidity control” (Bausch & Lomb Incorporated, priority 2004, published 2006)",
  "assay": "thermal stability of the medicament at poly(vinyl alcohol) curing temperature",
  "type": "physicochemical",
  "conditions": "heating during curing of poly(vinyl alcohol)",
  "procedure": "Optionally, the temperature proximate the first drug delivery device and the temperature proximate the second drug delivery device is a minimum of about 120° C. and a maximum of about 210° C. In an embodiment, the temperature proximate the first drug delivery device and the temperature proximate the second drug delivery device is a minimum of about 125° C., about 130° C., about 135° C. or about 140° C. and/or a maximum of about 210° C., about 200° C., about 180° C., about 170° C., about 150° C. or about 140° C. The desired temperature for curing the poly(vinyl alcohol) is dependent upon several factors. If a temperature is selected below about 120° C., the poly(vinyl alcohol) will not cure effectively. If the temperature is above about 210° C., decomposition of the poly(vinyl alcohol) will occur. If the poly(vinyl alcohol) is cured in the presence of the medicament, the stability of the medicament must be considered. For example, flucinolone acetonide begins to decompose above a temperature of about 165° C. Thus, it is desired that a temperature for curing poly(vinyl alcohol) in the presence of flucinolone acetonide be in the range of about 120° C. to about 150° C. and preferably about 135° C.",
  "data": [
    {"smiles": "CC1(C)O[C@@H]2C[C@H]3[C@@H]4C[C@H](F)C5=CC(=O)C=C[C@]5(C)[C@@]4(F)[C@@H](O)C[C@]3(C)[C@]2(C(=O)CO)O1", "note": "[flucinolone acetonide]", "values": [
      {"measurement": "temperature above which the medicament begins to decompose", "value": "> 165", "unit": "°C"}
    ]}
  ]
}
